For this experiment, the target named is T1, TaproA1 (Trichoderma asperellum, UniProt A0A6V8QUH5).
T1 construct: mature enzyme about 36 kDa; precursor 521 residues; purified on Q-Sepharose Fast Flow
Nature of the experiment: residual casein hydrolysis after […] min preincubation, Folin phenol read-out. The format is biochemical. The following applies: read-out: Relative activity ^b (%).

Non-standard residues stand in square brackets, D forms with d. Residues, ends and D or L forms follow the SMILES beside them. *: point of attachment. Sta = CC(C)C[C@H](N)[C@@H](O)CC(=O)O; Isovaleryl = CC(C)CC(=O)*

T1 sequence (A0A6V8QUH5 189-517 limits assumed): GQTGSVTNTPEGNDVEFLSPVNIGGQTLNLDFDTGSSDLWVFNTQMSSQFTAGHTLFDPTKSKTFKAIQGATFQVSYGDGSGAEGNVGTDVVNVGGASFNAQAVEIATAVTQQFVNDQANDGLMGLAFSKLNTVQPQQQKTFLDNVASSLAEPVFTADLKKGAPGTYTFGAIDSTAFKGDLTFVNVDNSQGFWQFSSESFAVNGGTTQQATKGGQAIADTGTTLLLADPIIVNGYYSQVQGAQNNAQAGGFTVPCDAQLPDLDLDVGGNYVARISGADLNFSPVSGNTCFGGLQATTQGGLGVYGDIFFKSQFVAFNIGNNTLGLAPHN

Regarding `CC(C)CC(=O)N[C@H](C(=O)N[C@H](C(=O)N[C@@H](CC(C)C)[C@@H](O)CC(=O)N[C@@H](C)C(=O)N[C@@H](CC(C)C)[C@@H](O)CC(=O)O)C(C)C)C(C)C` [Pepstatin A] (Isovaleryl-VV[Sta]A[Sta]-OH), the activity at 10 µM worked out at 0.7 ± 0.1%.

Source of the values: article PMC10787677, “Characterization of a novel aspartic protease from Trichoderma asperellum for the preparation of duck blood peptides” (Applied Microbiology and Biotechnology, 2024).
